# According to PMC10021052, “Novel multivalent S100A8 inhibitory peptides attenuate tumor progression and metastasis by inhibiting the TLR4-dependent pathway” (Cancer Gene Therapy, 2023):
# Entries after “also recorded” stand apart in the source; their conditions may differ.
# Tests used:
# SW480 cells = experiment: qPCR, S100A8-mediated IL-8 and VEGF mRNA induction in SW480 cells; format: cell-based, human; settings: qPCR, normalized to β-actin
# S100A8-TLR4/MD-2 complex = experiment: Competitive inhibition of S100A8-TLR4/MD-2 binding (ELISA, S100A8 immobilized; also immunoprecipitation); parameters: species or system human; settings: ELISA, peptide3A5 vs peptide #3 (Fig. 3B); divalent vs monomer (Fig. 4A)
# Experimental: S100A8 recombinant protein was purified as previously described. These proteins were immobilized on Maxisorp plates (Thermo Fisher Scientific, Waltham, MA, USA), followed by blocking with protein-free blocking buffer (Thermo Fisher Scientific). TLR4/MD-2 recombinant proteins with various concentrations of candidate peptides were then added to the indicated S100A8-immobilized ELISA plates for 2 h. The plates were washed, incubated with anti-TLR4 antibody, and HRP-conjugated secondary antibody, followed by the addition of substrate. The reaction was stopped by addition a 2N H2SO4 solution. Absorbance OD450/OD650 was measured using a microplate reader (Thermo Fisher Scientific). Maxisorp plates were also used for peptide coating. After blocking with protein-free blocking buffer, the coated plates were washed, and TLR4/MD-2 recombinant protein (2 µg/ml) was added to each well. The plates were incubated with a TLR4 antibody followed by horseradish peroxidase (HRP)-labeled anti-rabbit IgG. For detection of IL8 and VEGF in culture supernatants, SW480 cells were pretreated with the indicated peptides, and followed by stimulation with S100A8 for 24 h. The amount of interleukin-8 (IL-8) or VEGF in the supernatants were analyzed by ELISA kits (R&D Systems, Mineapolis, MN) according to the manufacturer’s instructions.
# Fig. 2 Identification of S100A8 binding sites to human TLR4/MD-2. […] TLR4/MD-2 recombinant proteins were immobilized to the ELISA plate. After blocking, a full length or deletion mutant of S100A8 was added to the plate. The more detailed methods are described in Materials and Methods. […] B A series of overlapping S100A8 synthetic peptides. The TLR4/MD-2 recombinant proteins were added to each well of peptide immobilized plates. The affinity to TLR4/MD-2 was determined. Data are shown as mean ± SD. C The competitive activity was determined using ELISA. Data are shown as mean ± SD. D The TLR4/MD-2 was mixed with S100A8 with/without the indicated peptides, and immunoprecipitated using an anti-TLR4 antibody. TLR4 or S100A8 was visualized. Similar results were obtained in three independent experiments. […] Total RNAs from SW480 cells with/without treatment of the peptide candidates were extracted and qPCR analysis was performed using relevant primer sets and SYBR green. Relative expression levels were compared. […] TEXT PRINTED IN THE PICTURE: (A) Full length: TLR4/MD-2 binding: + | (A) S100A8-ΔC: TLR4/MD-2 binding: − | (A) S100A8-N: TLR4/MD-2 binding: −
# (§1) Fig. 4 Improvement of competitive inhibition activity by divalent peptide3A5. A The binding capacity was measured at the indicated concentration using an ELISA-based assay. Similar results were obtained in three independent experiments. B SW480 cells were pretreated with 2.5 µM of divalent peptide3A5, and then stimulated with human S100A8 recombinant protein. After 30 min, cell lysates were subjected to western blotting using the indicated antibody. The divalent peptide#3 or peptide3A5 reduced the expression of S100A8-mediated IL-8 (C) and VEGF (D) induction. Total RNAs from SW480 cells with/without treatment of the peptide candidates were extracted and qPCR analysis was performed using relevant primer sets and SYBR green. Relative expression levels were compared. Peptide #3 suppresses S100A8-mediated IL-8(E) and VEGF (F) secretion in SW480 cells.
# [1] = system: p38 and p65 (NF-κB) in SW480 cells; experiment: Western blotting, S100A8-induced phosphorylation of p38 and p65 in SW480 cells; format: cell-based; settings: 2.5 µM pretreatment, human S100A8 30 min
# Experimental: Cells were lysed in lysis buffer (50 mM Tris-HCl [pH 7.4], 150 mM NaCl, 5 mM Na4P2O7, 10 mM β-glycerophosphate, 25 mM NaF, 1 mM EDTA, 1 mM EGTA, 1 mM Na3VO4, and 1% [v/v] Triton X-100) containing the cOmplete^TM Mini protease inhibitor cocktail (Roche Diagnostics, Indianapolis, IN, USA) as described previously. Cell lysates (20 µg) were separated using SDS-PAGE and transferred to an Immun-Blot PVDF membrane (Bio-Rad, Hercules, CA, USA). After blocking with Blocking One or Blocking One-P (Nacalai tesque, Kyoto, Japan), membranes were probed with the indicated antibodies, followed by HRP-labeled anti-rabbit IgG and anti-mouse IgG (GE Healthcare). Signals were visualized using Immobilon Western HRP Substrate (Millipore, Billerica, USA).
# as §1, with “Total RNAs from SW480 cells with/without treatment of the peptide candidates were extracted and qPCR analysis was performed using relevant primer sets and SYBR green. Relative expression levels were compared. Peptide #3 suppresses S100A8-mediated IL-8(E) and VEGF (F) secretion in SW480 cells.” left out
# PKH26-labeled LLC cells = experiment: Lung dissemination of PKH26-labeled LLC cells in TCM-sensitized mice; format: in vivo, C57BL/6J mice; settings: 10 mg/kg i.p. 1 h before last TCM injection; lungs 16 h after cells; 5–6 mice per group; *P < 0.05 vs control
# MDSCs = MDSCs in LLC tumor-bearing mice; format: in vivo, C57BL/6J mice; settings: peripheral blood of LLC-tumor-bearing mice; *P < 0.05 vs control
sequence,measurement,setting,value
"FQEFAILVIK [Divalent peptide3A5, divalent peptide of peptide3A5 using Fmoc-Lys (Fmoc)-OH to form two branches]",S100A8-mediated VEGF induction (mRNA),SW480 cells,efficiently inhibited
same,S100A8-mediated IL-8 induction (mRNA),SW480 cells; *P < 0.05 vs S100A8,efficiently inhibited
same,"competitive inhibition, potency compared with parent",S100A8-TLR4/MD-2 complex,observed at a lower dose range than the effect of the peptide3A5 monomer
same,inhibition of S100A8-induced phosphorylation of p38,[1],1.3 fold
same,inhibition of S100A8-induced phosphorylation of p65 (NF-κB),[1],1.7 fold
same,pulmonary recruitment of PKH26-labeled LLC cells / lung metastasis,PKH26-labeled LLC cells,suppresses the pulmonary recruitment of PKH26-labeled LLC cells
same,MDSC cell number,MDSCs,reduced the cell population of MDSCs; also recorded: reduces cell number of MDSCs in peripheral blood
